Reference: ChEMBL document CHEMBL1201862, “PubChem BioAssay data set” (2004)
Active and inactive are the calls of the source.

Tests used:
[1] = target: T1, RNA-binding protein pos-1 (Caenorhabditis elegans, UniProt G5EF15); assay: inhibitors of POS-1/mex-3 RNA binding, dose response, biochemical, fluorescence polarization (AID 1964);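 also: purified POS-1 fused to maltose binding protein made in E. coli; potency of compounds blocking POS-1 binding to fluorescent RNA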
T1 sequence (G5EF15 whole entry): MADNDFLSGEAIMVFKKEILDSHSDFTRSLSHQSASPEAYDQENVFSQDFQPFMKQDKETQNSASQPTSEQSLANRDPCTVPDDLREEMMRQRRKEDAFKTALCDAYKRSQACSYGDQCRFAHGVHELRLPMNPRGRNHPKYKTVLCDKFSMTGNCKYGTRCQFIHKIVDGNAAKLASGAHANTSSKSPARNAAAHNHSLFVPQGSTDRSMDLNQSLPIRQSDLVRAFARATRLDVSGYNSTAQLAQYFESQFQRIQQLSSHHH

[2] = target: T2, Zinc finger protein mex-5 (Caenorhabditis elegans, UniProt Q9XUB2); assay: MEX-5/TCR-2 RNA interaction inhibitors, dose response, biochemical, C. elegans, fluorescence polarization (AID 1960)
T2 sequence (Q9XUB2 whole entry): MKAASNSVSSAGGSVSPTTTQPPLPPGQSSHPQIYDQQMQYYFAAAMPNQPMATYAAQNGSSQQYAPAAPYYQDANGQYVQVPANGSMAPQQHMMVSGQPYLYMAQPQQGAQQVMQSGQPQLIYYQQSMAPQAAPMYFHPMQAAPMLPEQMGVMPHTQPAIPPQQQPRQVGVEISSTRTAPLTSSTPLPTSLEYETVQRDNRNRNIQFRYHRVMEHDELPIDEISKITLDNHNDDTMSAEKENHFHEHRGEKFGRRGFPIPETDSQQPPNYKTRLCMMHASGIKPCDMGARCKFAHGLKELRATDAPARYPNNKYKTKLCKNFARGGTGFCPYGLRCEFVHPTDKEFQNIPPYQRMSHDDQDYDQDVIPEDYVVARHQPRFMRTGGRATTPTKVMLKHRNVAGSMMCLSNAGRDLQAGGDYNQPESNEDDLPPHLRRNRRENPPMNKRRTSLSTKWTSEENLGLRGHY

[3] = microbe, parasite or virus in culture; assay type: functional; conditions: Mycobacterium tuberculosis
Leucine aminopeptidase = target: T3, Leucine aminopeptidase (Plasmodium falciparum 3D7, UniProt Q8IL11); assay: P. falciparum M17LAP inhibitors, primary screen, biochemical, fluorogenic H-Leu-NHMec substrate, 1536-well (AID 1619); assay type: functional
T3 sequence (Q8IL11 whole entry): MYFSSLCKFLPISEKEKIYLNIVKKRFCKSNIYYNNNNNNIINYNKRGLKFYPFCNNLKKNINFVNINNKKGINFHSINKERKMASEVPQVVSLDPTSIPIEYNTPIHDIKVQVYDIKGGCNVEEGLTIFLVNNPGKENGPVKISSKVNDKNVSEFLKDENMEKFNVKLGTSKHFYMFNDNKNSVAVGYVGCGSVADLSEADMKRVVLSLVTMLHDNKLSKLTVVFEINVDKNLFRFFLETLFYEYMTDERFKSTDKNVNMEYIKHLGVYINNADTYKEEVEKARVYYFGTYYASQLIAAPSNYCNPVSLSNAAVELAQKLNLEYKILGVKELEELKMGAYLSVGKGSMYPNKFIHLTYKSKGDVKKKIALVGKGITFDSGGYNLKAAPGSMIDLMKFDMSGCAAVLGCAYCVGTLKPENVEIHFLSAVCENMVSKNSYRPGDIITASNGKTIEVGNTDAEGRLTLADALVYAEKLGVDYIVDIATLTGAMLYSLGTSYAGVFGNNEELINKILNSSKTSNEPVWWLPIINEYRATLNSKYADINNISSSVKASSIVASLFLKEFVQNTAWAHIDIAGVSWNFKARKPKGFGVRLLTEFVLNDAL

[4] = test system: Streptococcus sp. 'group A'; assay: growth inhibition of control SK(-) GAS strain, dose response, counter-screen for streptokinase expression inhibitor project, luminescence, kanamycin, BacTiterGlo, confirmation (AID 1900); assay type: functional, organism-based
Streptococcus = assay: Group A Streptococcus viability loss, dose response, counter-screen for streptokinase expression inhibitor project, luminescence, BacTiterGlo (AID 1915); assay type: functional, organism-based;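 also: potency for reduction of bacterial viability or growth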
[5] = Luminescence Cell-Based Dose Retest to Confirm Inhibitors of Cancer Stem Cells. [Related pubchem assays (depositor defined):AID2717, AID2721]; assay type: functional; conditions: Homo sapiens
Protein skinhead-1 = target: T4, Protein skinhead-1 (Caenorhabditis elegans, UniProt P34707); assay type: functional
T4 sequence (P34707 whole entry): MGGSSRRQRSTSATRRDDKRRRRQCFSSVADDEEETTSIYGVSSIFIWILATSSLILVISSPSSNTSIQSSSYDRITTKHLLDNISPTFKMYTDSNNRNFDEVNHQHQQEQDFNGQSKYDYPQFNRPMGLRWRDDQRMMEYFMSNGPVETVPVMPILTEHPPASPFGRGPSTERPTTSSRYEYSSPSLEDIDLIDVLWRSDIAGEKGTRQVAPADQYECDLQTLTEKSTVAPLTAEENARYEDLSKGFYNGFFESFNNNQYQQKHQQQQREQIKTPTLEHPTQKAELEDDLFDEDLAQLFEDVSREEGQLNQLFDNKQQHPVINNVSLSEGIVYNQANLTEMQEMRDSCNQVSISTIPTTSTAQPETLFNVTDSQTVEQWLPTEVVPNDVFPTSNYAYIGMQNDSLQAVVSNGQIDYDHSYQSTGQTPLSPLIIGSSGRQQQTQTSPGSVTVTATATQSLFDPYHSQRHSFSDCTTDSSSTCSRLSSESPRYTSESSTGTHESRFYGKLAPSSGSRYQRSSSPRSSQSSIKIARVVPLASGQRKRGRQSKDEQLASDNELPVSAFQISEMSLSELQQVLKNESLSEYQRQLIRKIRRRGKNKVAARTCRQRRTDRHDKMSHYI

INS1 = assay: beta cell apoptosis inhibitors, cytokine rescue, dose response, luminescence, retest (AID 449756); assay type: functional, cell-based; conditions: Rattus norvegicus;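 also: cell death triggered by IL-1 beta plus TNF-alpha plus IFN-gamma mixture; protective hits raise ATP signal compared with cytokine alone wells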
[6] = HEp-2 cell cytotoxicity, dose response, cytotoxicity control for RSV inhibitor project, HTS (AID 2410); assay type: functional; conditions: human respiratory syncytial virus
[7] = inhibitors of firefly luciferase expression or activity, dose response, H4 neuroglioma cells, luminescence (AID 1990); assay type: functional, cell-based
[8] = Luminescence Cell-Based Dose Response HTS to Identify Inhibitors of 5'UTR Stem-Loop Driven Prion Protein mRNA Translation in H4 Neuroglioblastoma Cells. [Related pubchem assays: 1827 (Project Summary), 1813 (Primary HTS)]; assay type: functional
[9] = inhibitors of SNCA 5'UTR-driven reporter translation, confirmation, H4 neuroglioma cells, luminescence (AID 1988); assay type: functional, cell-based
Cytochrome P450 2D6 = Cytochrome P450 2D6 (Homo sapiens, UniProt P10635);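 also: CYP2D6 member of a cytochrome P450 panel assay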
Cytochrome P450 1A2 = target: T5, Cytochrome P450 1A2 (Homo sapiens, UniProt P05177);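 also: PubChem cytochrome P450 panel assay, CYP1A2 panel member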
T5 sequence (P05177 whole entry): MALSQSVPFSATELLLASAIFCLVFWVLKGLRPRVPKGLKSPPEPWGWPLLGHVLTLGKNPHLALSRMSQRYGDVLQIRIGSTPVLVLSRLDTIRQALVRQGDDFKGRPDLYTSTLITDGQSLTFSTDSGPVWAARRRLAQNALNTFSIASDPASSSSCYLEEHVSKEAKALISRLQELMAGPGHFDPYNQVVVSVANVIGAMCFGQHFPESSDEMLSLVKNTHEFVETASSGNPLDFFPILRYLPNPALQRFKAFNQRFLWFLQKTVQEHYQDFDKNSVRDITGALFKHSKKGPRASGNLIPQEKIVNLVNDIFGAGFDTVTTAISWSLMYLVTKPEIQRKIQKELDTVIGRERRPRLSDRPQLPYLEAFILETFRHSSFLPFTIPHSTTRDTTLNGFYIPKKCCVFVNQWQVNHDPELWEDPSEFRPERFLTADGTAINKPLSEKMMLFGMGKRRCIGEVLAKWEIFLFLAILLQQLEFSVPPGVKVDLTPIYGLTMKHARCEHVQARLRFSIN

Cytochrome P450 3A4 = Cytochrome P450 3A4 (Homo sapiens, UniProt P08684);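 also: CYP3A4 tested as one member of a cytochrome P450 panel screen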
Sequence of Cytochrome P450 3A4 (P08684 whole entry): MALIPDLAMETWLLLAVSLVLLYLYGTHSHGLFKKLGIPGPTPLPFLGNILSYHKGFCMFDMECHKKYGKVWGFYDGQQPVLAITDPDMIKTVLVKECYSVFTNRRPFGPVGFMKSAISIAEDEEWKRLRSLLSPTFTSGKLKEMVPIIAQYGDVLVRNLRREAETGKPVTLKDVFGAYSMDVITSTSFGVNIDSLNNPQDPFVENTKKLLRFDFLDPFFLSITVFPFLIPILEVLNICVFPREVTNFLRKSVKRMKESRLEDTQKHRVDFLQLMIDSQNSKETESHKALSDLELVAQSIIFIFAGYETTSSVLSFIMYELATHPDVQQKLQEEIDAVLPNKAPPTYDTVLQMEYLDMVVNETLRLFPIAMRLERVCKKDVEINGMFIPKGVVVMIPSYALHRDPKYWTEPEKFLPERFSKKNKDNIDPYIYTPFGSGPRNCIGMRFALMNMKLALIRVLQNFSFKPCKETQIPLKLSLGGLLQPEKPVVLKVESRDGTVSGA

Sequence of Cytochrome P450 2D6 (P10635 whole entry): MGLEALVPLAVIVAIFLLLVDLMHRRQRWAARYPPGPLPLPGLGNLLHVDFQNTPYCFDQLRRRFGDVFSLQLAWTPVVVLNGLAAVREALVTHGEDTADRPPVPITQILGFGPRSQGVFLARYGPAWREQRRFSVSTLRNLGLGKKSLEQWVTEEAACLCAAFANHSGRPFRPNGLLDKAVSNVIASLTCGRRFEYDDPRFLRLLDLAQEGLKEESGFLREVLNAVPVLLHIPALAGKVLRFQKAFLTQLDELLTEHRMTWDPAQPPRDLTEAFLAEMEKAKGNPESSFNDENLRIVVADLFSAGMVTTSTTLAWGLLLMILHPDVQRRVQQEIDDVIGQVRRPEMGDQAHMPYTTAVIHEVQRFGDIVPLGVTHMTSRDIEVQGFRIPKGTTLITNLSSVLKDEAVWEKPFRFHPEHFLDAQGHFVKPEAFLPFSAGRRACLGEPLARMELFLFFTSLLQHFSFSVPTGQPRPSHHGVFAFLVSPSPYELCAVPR

## CCCCCCCCOc1ccc(C2OC34CCCCC3C(C#N)(C#N)C2(C#N)C(=N)O4)cc1 (configuration not stated)
[1]
  EC50: 13 µM (active)
[2]
  EC50: 11.8 µM (active)

## COc1ccc(NCc2n[nH]nc2-c2ccccc2)cc1Cl
[3]
  CC50: > 40 µM (active)

## CCCc1cc(O)nc(SCC(=O)N(C)CC(=O)Nc2ccc(C)cc2)n1
Leucine aminopeptidase
  IC50: 9.77 µM (active)

## O=C(CSc1nnc[nH]1)Nc1cccc2ccccc12
Leucine aminopeptidase
  IC50: 29.2 µM (active)

## Cc1ccc(C)c(NC(=O)CSc2nc(O)c3c(C(F)(F)F)cc(-c4cccs4)nc3n2)c1
[4]
  EC50: 2.45 µM (active)
Streptococcus
  EC50: 3.04 µM (active)
[5]
  AC50: 2.92 µM (active)

## C=CCn1c(CNC(=O)c2ccco2)nnc1SCC(=O)Nc1cccc(Br)c1
Leucine aminopeptidase
  IC50: 90.1 µM (active)

## O=[N+]([O-])c1cccc(-c2csc(Nc3ccccc3)n2)c1
[5]
  AC50: 4.04 µM (active)
Protein skinhead-1
  IC50: > 100 µM (inactive)

## CCn1c(C)c(C)c2cc(C(=O)N3CCc4ccccc4C3)ccc21
INS1
  AC50: 4.05 µM (active)
Protein skinhead-1
  IC50: > 100 µM (inactive)

## CCCSc1nnc(N2C(=O)C(O)=C(C(=O)c3ccco3)C2c2ccccc2F)s1 (configuration not stated)
[1]
  EC50: > 300 µM (inconclusive)
[2]
  EC50: > 300 µM (not active)

## COc1ccc(N/C(=C(/C(Cl)=C(Cl)Cl)[N+](=O)[O-])n2nnc3ccccc32)cc1
[1]
  EC50: 88.5 µM (active)
[2]
  EC50: 49.1 µM (inconclusive)

## COCC(C)n1c(SCc2cc(=O)n3cc(C)ccc3n2)nc2ccccc2c1=O (configuration not stated)
[6]
  CC50: 49.5 µM (active)
[7]
  EC50: > 120 µM (not active)
[8]
  EC50: 12.6 µM (active)
[9]
  EC50: > 120 µM (not active)

## CN1CCN(c2ccc(NC(=O)COc3ccc(Cl)cc3Cl)cc2)CC1
[5]
  AC50: 2.6 µM (active)

## c1ccc(-c2csc(-c3ccncc3)n2)cc1
Protein skinhead-1
  IC50: 4.05 µM (active)

## O=C(/C=C/c1ccc(OCCCF)cc1)Nc1ccnc(-c2cccnc2)n1
[1]
  EC50: 22.8 µM (active)
[2]
  EC50: 20.6 µM (active)

## Cc1cc(C)c(NC(=O)CN2C(=O)NC3(CCCCC3)C2=O)c(Cl)c1
Leucine aminopeptidase
  IC50: 29.3 µM (active)

## CCn1cc(C=C2C(=O)NC(=O)NC2=O)c2ccccc21
[1]
  EC50: 28.7 µM (inconclusive)
[2]
  EC50: > 300 µM (inconclusive)

## Cc1ccc2c(c1)cc1c(=O)n(CC(=O)NCc3ccccn3)nc(C)n12
[7]
  EC50: > 120 µM (not active)
[8]
  EC50: > 120 µM (not active)
[9]
  EC50: > 120 µM (not active)

## CC(C)CCNC(=O)c1ccc2c(SCC(=O)O)c3c(nc2c1)CCCC3
Leucine aminopeptidase
  IC50: 39.2 µM (active)

## O=C1NC(=O)N(CC2CCCO2)C(=O)/C1=C/c1c[nH]c2ccccc12 (configuration not stated)
[1]
  EC50: > 300 µM (not active)
[2]
  EC50: > 300 µM (not active)

## CCOCCCNC(=O)C(c1ccc(Cl)cc1)N1CCC2(CC1)OCCO2 (configuration not stated)
Protein skinhead-1
  IC50: > 100 µM (inactive)

## Cc1cc(C(=O)O)ccc1-n1c(C)cc(/C=C2\SC(=O)NC2=O)c1C
[1]
  EC50: > 300 µM (not active)
[2]
  EC50: > 300 µM (not active)

## Cc1cc(C)cc(NC(=O)CSc2ncc(S(=O)(=O)c3ccccc3)c(=O)[nH]2)c1
Leucine aminopeptidase
  IC50: 11.9 µM (active)

## COc1ccc(-c2c[nH]nc2-c2ccc(OCC(=O)NN)cc2O)cc1OC
[1]
  EC50: > 300 µM (not active)
[2]
  EC50: 2.07 µM (active)

## Cc1cccc(NC(=O)c2ccc(COc3ccc(Cl)cc3Cl)o2)n1
[5]
  AC50: 1.18 µM (active)

## COc1ccc2c(c1)c(C(O)CN1CCN(Cc3ccc4c(c3)OCO4)CC1)c(C)n2C (configuration not stated)
Protein skinhead-1
  IC50: > 100 µM (inactive)

## CCCC(=O)Nc1ccc(C(=O)/C=C/c2ccc(SC)cc2)cc1
[3]
  CC50: > 40 µM (active)
Cytochrome P450 2D6
  AC50: 7.94 µM (inconclusive)
Cytochrome P450 1A2
  AC50: 12.6 µM (inconclusive)
Cytochrome P450 3A4
  AC50: 3.16 µM (inconclusive)

## CCn1cc([N+](=O)[O-])c(C(=O)Nc2nc(-c3ccc(C)cc3)c(C)s2)n1
[5]
  AC50: 4.24 µM (active)

## Cc1ccc(-c2nc(-c3ccncc3)no2)c(C)c1
Protein skinhead-1
  IC50: 40.9 µM (active)

## CC1=C(C(=O)OCC2CCCO2)C(c2ccccc2OC(C)C)C2=C(O)CC(c3ccco3)CC2=N1 (configuration not stated)
Protein skinhead-1
  IC50: > 100 µM (inactive)

## CC1(C)CC[C@]2(CO)[C@@H](O)C[C@]3(C)C(=CCC4[C@@]5(C)CC[C@H](O)C(C)(C)C5CC[C@]43C)[C@@H]2C1 (some centres not stated)
[5]
  AC50: 3.14 µM (active)

## COc1ccc(CCNC(=O)COc2nsnc2N2CCOCC2)cc1OC
Protein skinhead-1
  IC50: > 100 µM (inactive)

## O=C(C=Cc1cccs1)c1ccc(Cl)s1
Protein skinhead-1
  IC50: 19.7 µM (active)

## CC1=NNC(=O)C1CCC(=O)N/N=C/C(Br)=C/c1ccccc1 (configuration not stated)
Leucine aminopeptidase
  IC50: 8 µM (active)

## CCOCCCn1/c(=N/C(C)=O)c(C#N)cc2c(=O)n3ccccc3nc21
[1]
  EC50: > 300 µM (not active)
[2]
  EC50: > 300 µM (not active)

## Cc1ccccc1N/N=C/c1c(C)nc2ccccn12
[6]
  CC50: 33.2 µM (active)
[3]
  CC50: > 40 µM (active)
